Measured values taken from the NIST ThermoML archive (doi:10.1016/j.fluid.2015.06.034).
Numbers after ± are expanded uncertainties.

Test: wn = mass fraction of the nth substance listed
Settings: Liquid, Vibrating tube method, w1 = 0.45

`CN(CCO)CCO` [N-methyldiethanolamine] + O showed a mass density (303.15 K) of 1037.2 ± 5 kg/m3, a mass density (323.15 K) of 1024.8 ± 5 kg/m3 and a mass density (343.15 K) of 1011.5 ± 5 kg/m3. The mass density (363.15 K) was 996.4 ± 5 kg/m3.
